# Patent US20260185169A1, “MOLECULAR SIGNATURES TO PREDICT LONG-TERM LIVER FIBROSIS PROGRESSION” (THE BOARD OF REGENTS OF THE UNIVERSITY OF TEXAS SYSTEM, priority 2022, published 2026)
# Tested on: FPS and molecular pathways
# Experiment: Modulation of FPS and molecular pathways in hepatic transcriptome (RNA-Seq, CES/GSEI) in CENTAUR trial biopsies
# Assay type: in vivo, human
# Settings: for modulation of FPS genes: cenicriviroc arm
# From the text: Archived formalin-fixed liver tissues from index biopsy were used for histological assessment in all patients (FIG. 1 and Table 1A-11) to confirm no to minimal fibrosis (METAVIR fibrosis stage F0 or F1). The PLS validation set 1 (and FPS derivation set 1) is a case-control series of 43 chronic hepatitis C patients from a prior cohort study consecutively diagnosed and followed at Johns Hopkins and Massachusetts General Hospital between 1998 and 2010. Twenty-five patients were co-infected with HIV and on anti-retroviral therapies. The patients were regularly followed up with ultrasound elastography at median interval of 1.1 (IQR: 0.6-2.0) years. Liver stiffness measurement >7.0 and >9.5 kPa were regarded as indication of F2 and F3 fibrosis, respectively. The PLS validation set 2 (and FPS derivation set 2) is a case-control series of 38 patients who consecutively underwent liver transplantation for HCV-related cirrhosis and protocol liver biopsies at year 1, 2, and 5 after transplantation (and additional biopsies as needed to evaluate graft rejection, which were excluded) at Baylor University between 2002 and 2007. Median number of biopsies was 8 (IQR: 6-9) per patient with median interval between serial biopsies of 8.6 (IQR: 0.3-12.6) months. […] The FPS derivation set 3 is a cross-sectional series of 31 NAFLD patients who underwent diagnostic liver biopsy at Hiroshima University between 2003 and 2015. The FPS derivation set 4 is a cross-sectional series of 309 NAFLD patients who underwent diagnostic liver biopsy (F0 or F1 fibrosis) at Massachusetts General Hospital between 2009 and 2016. […] The cases were defined as patients who had F-stage increase of one stage or more in the follow-up biopsy. The FPS validation set 2 includes 78 patients with fibrotic liver diseases from various etiologies, for which de-identified fresh liver tissues were available from standard-care hepatic resection for organotypic ex vivo tissue culture at University of Texas Southwestern and Mount Sinai. The FPS validation set 3 consists of NASH patients with F1-F3 fibrosis who underwent liver biopsy before and after 1-year treatment with cenicriviroc (n=9) or placebo (n=10) in the phase Ilb CENTAUR trial (NCT02217475). Decrease of one or more fibrosis stage was regarded as anti-fibrotic response. The serum surrogate FPS was assessed in archived de-identified serum samples from 79 patients with chronic liver diseases. The FPSec validation set is a cohort of 122 patients with compensated (Child-Pugh class A) cirrhosis patients with mixed etiologies enrolled at University of Michigan between 2004 and 2006 as reported in our previous study. Hepatic decompensation was defined as newly developed massive ascites, hepatic encephalopathy, bleeding from gastroesophageal varices, or liver transplantation. The study was approved by institutional review board at respective institutions with written informed consent or exemption for use of archived de-identified samples (protocol numbers: STU062018-058, STU072018-071, 2010P000220/PHS, HS13-00159).
# Total RNA was isolated from fixed tissue sections by using High Pure RNA Paraffin kit (Roche), and assessed for quality by qRT-PCR of RPL13A. Total RNA from the PCLS tissues was isolated using RNeasy kit (Qiagen). RNA samples (100-200 ng) were subjected to the PLS/FPS assay implemented in the nCounter platform (NanoString), and transcriptome profiling of the CENTAUR trial samples was performed by RNA-Seq (TrueSeq RNA Access, Illumina). Expression of BCL2, COL1A1, and ACTA2 genes was measured by qRT-PCR (Table 3). Serum protein profiling was performed by using xMAP assay (Luminex). […]
# [1] = Fibrosis not improved, NASH patients, Hallmark set, Cellular signaling
# [2] = Fibrosis not improved, NASH patients, Hallmark set, Inflammatory response, immunity
# [3] = Fibrosis not improved, NASH patients, Hallmark set, Metabolism, biosynthesis
# [4] = Fibrosis not improved, NASH patients, Hallmark set, Pathogenic response
# [5] = Fibrosis not improved, NASH patients, Hallmark set, Sex hormone signaling
# [6] = Fibrosis not improved, NASH patients, Hallmark set, Stress response
# [7] = Fibrosis not improved, NASH patients, Immune cell signature (GSE65136)
# [8] = Fibrosis not improved, NASH patients, Nuclear receptor signaling (curated pathway members)
# [9] = Fibrosis not improved, NASH patients, PPAR agonists on mouse primary hepatocytes (GSE27948)
structure (smiles),measurement,setting,value
CCCCOCCOc1ccc(-c2ccc3c(c2)/C=C(/C(=O)Nc2ccc([S@@+]([O-])Cc4cncn4CCC)cc2)CCCN3CC(C)C)cc1 [Cenicriviroc],"NES, Mitotic spindle gene set","Fibrosis not improved, NASH patients, Hallmark set, Cell cycle, DNA damage, response",0.82
same,"NES, Apoptosis gene set","Fibrosis not improved, NASH patients, Hallmark set, Cell death",1.38
same,"NES, E2F targets gene set",[1],1.88
same,"NES, Hedgehog signaling gene set",[1],1.05
same,"NES, KRAS signaling gene set",[1],1.63
same,"NES, Myc targets v1 gene set",[1],2.19
same,"NES, Myc targets v2 gene set",[1],1.55
same,"NES, Notch signaling gene set",[1],0.84
same,"NES, PI3K/AKT/mTOR signaling gene set",[1],1.43
same,"NES, TGFβ signaling gene set",[1],−0.70
same,"NES, TNFα signaling via NF-κB gene set",[1],0.96
same,"NES, Wnt/β-catenin signaling gene set",[1],0.87
same,"NES, mTORC1 signaling gene set",[1],1.93
same,"NES, p53 pathway gene set",[1],1.03
same,"NES, Allograft rejection gene set",[2],2.25
same,"NES, IL2 STAT5 signaling gene set",[2],1.70
same,"NES, IL6 JAK STAT3 signaling gene set",[2],1.82
same,"NES, Inflammatory response gene set",[2],1.61
same,"NES, Interferon-α response gene set",[2],0.83
same,"NES, Interferon-γ response gene set",[2],1.39
same,"NES, Adipogenesis gene set",[3],−0.72
same,"NES, Bile acid metabolism gene set",[3],−1.36
same,"NES, Cholesterol homeostasis gene set",[3],0.99
same,"NES, Coagulation gene set",[3],1.33
same,"NES, Complement gene set",[3],1.37
same,"NES, Fatty acid metabolism gene set",[3],0.73
same,"NES, Glycolysis gene set",[3],1.43
same,"NES, Heme metabolism gene set",[3],−0.95
same,"NES, Oxidative phosphorylation gene set",[3],1.16
same,"NES, Peroxisome gene set",[3],−1.03
same,"NES, Protein secretion gene set",[3],1.30
same,"NES, Xenobiotic metabolism gene set",[3],0.79
same,"NES, Angiogenesis gene set",[4],1.64
same,"NES, Epithelial mesenchymal transition gene set",[4],1.98
same,"NES, Androgen response gene set",[5],1.63
same,"NES, Estrogen response early gene set",[5],1.07
same,"NES, Estrogen response late gene set",[5],1.18
same,"NES, Hypoxia gene set",[6],1.67
same,"NES, Myogenesis gene set",[6],1.73
same,"NES, Reactive oxygen species gene set",[6],1.24
same,"NES, UV response up gene set",[6],1.24
same,"NES, Unfolded protein response gene set",[6],1.41
same,"NES, B cell (naïve) gene set",[7],1.70
same,"NES, CD4 T cell (naïve) gene set",[7],1.93
same,"NES, CD8 T cell gene set",[7],2.31
same,"NES, DC (activate) gene set",[7],1.75
same,"NES, Gamma delta T cell gene set",[7],1.86
same,"NES, Macrophage (M1) gene set",[7],1.70
same,"NES, Macrophage (M2) gene set",[7],1.74
same,"NES, Mast cell (active) gene set",[7],1.50
same,"NES, Mast cell (rest) gene set",[7],1.71
same,"NES, Memory B cell gene set",[7],1.67
same,"NES, Memory T cell (rest) gene set",[7],2.25
same,"NES, Monocyte gene set",[7],1.50
same,"NES, NK cell (rest) gene set",[7],1.76
same,"NES, Neutrophil gene set",[7],1.42
same,"NES, Plasma cell gene set",[7],1.46
same,"NES, Regulatory T cell gene set",[7],1.99
same,"NES, T follicular helper cell gene set",[7],1.85
same,"NES, FXR pathway gene set",[8],−1.04
same,"NES, PPAR signaling gene set (first listed)",[8],−0.88
same,"NES, PPAR signaling gene set (second listed)",[8],−1.00
same,"NES, PPARα pathway gene set (first listed)",[8],−0.62
same,"NES, PPARα pathway gene set (second listed)",[8],−0.77
same,"NES, RAR/RXR pathway gene set",[8],−1.49
same,"NES, RXR/VDR pathway gene set",[8],−1.71
same,"NES, GW7647 (PPARa agonist) gene set","Fibrosis not improved, NASH patients, PPAR agonist on human primary hepatocytes (GSE53399)",−1.56
same,"NES, GW501516 (PPARd agonist) gene set",[9],−0.92
same,"NES, ROSIGLITAZONE (PPARg agonist) gene set",[9],−1.19
same,"NES, WY14643 (PPARa agonist) gene set",[9],1.17
same,"NES, PDGFRB target gene signature","Fibrosis not improved, NASH patients, iLINCS",−0.79
same,"modulation of RXR, RAR and FXR pathways",both responders and non-responders,no obvious induction
same,modulation of FPS genes,patients with histological fibrosis improvement,suppressed or unchanged
same,modulation of FPS genes,patients with no fibrosis improvement,generally induced
same,modulation of PPAR pathways,"fibrosis responders after 1-year treatment, non-responders lack it",enrichment
same,modulation of E2F signaling,fibrosis responders only,most strikingly suppressed
same,PPAR α target gene signature (vs δ and γ agonist signatures),transcriptional target gene signatures defined in mouse primary hepatocyte,dominantly induced
